Reference: paper PMC8071423, “A New Pyrimidine Schiff Base with Selective Activities against Enterococcus faecalis and Gastric Adenocarcinoma” (Molecules, 2021)
Converted amounts (≈) assume the structure as drawn.

Key:
[1] = system: Candida albicans ATCC 10231; experiment: Antimicrobial microdilution / modified Richards method; assay type: cell-based; settings: ATCC10231; Candida albicans 10231; according to the EUCAST examination; read-out: MIC (reference agent)
[2] = system: Escherichia coli ATCC 25922; experiment: as above; assay type: cell-based; settings: ATCC25922; Escherichia coli 25922; according to the EUCAST examination; read-out: MIC (reference agent)
[3] = system: Enterococcus faecalis ATCC 29212; experiment: as above; assay type: cell-based; settings: Enterococcus faecalis, ATCC29212, Enterococcus faecalis 29212; according to the EUCAST examination; read-out: MIC (reference agent)
[4] = system: Streptococcus pneumoniae ATCC 49619; experiment: as above; assay type: cell-based; settings: ATCC49619; Streptococcus pneumoniae 49619; according to the EUCAST examination; read-out: MIC (reference agent)
[5] = system: Staphylococcus aureus ATCC 43300; experiment: as above; assay type: cell-based; settings: ATCC43300; Staphylococcus aureus 43300; according to the EUCAST examination; read-out: MIC (reference agent)
[6] = system: Klebsiella pneumoniae ATCC 13883; experiment: as above; assay type: cell-based; settings: ATCC13883; Klebsiella pneumoniae 13883; according to the EUCAST examination; read-out: MIC (reference agent)
[7] = system: Pseudomonas aeruginosa ATCC 27853; experiment: as above; assay type: cell-based; settings: ATCC27853; Pseudomonas aeruginosa 27853; according to the EUCAST examination; read-out: MIC (reference agent)
AGS cell line = experiment: Microscopic observation of cell and nucleus morphology, Hoechst 33342; assay type: cell-based, human; settings: positive control, 1 µM
Description: Morphological changes and DNA fragmentation were examined with an Olympus IX53 inverted fluorescence microscope after staining with Hoechst 33342 according to the manufacturer’s recommendations Thermo Scientific (Waltham, MA, USA). Briefly, cells were seeded in 12-well plates with a density of 1 × 10^5 cell/mL. After overnight incubation, the test substance was added in a half-maximal inhibitory (IC50) concentration and incubated for 24, 48, and 72 h. Before microscopic observation, both adherent and floating cells were collected, centrifuged, resuspended in PBS containing 1 µg/mL Hoechst 33342 dye. After 10 min incubation in the dark, the morphology of cells and DNA were visualized using a contrast phase and a UV filter.

`C[C@@H]1[C@H](O)[C@@H](C)/C=C/C=C/C=C/C=C/C=C/C=C/C=C/[C@H](O[C@@H]2O[C@H](C)[C@@H](O)[C@H](N)[C@@H]2O)C[C@@H]2O[C@](O)(C[C@@H](O)C[C@@H](O)[C@H](O)CC[C@@H](O)C[C@@H](O)CC(=O)O[C@H]1C)C[C@H](O)[C@H]2C(=O)O` [amphotericin B] was tested, and the MIC [1] was 1 µg/mL (≈ 1.08 µM).
With `CNC(C)C1CCC(N)C(OC2C(N)CC(N)C(OC3OCC(C)(O)C(NC)C3O)C2O)O1` (centres unmarked) [gentamicin] the MIC [2] was 2 µg/mL (≈ 4.19 µM).
With `C[C@H]1COc2c(N3CCN(C)CC3)c(F)cc3c(=O)c(C(=O)O)cn1c23` [levofloxacin] the MIC [3] was 4 µg/mL (≈ 11.1 µM), the MIC [4] was 0.001 µg/mL (≈ 0.00277 µM) and the MIC [5] was 1 µg/mL (≈ 2.77 µM). It also gave an MIC [6] of 0.5 µg/mL (≈ 1.38 µM) and an MIC [7] of 1 µg/mL (≈ 2.77 µM).
With `CN[C@@H]1C[C@H]2O[C@@](C)([C@@H]1OC)n1c3ccccc3c3c4c(c5c6ccccc6n2c5c31)C(=O)NC4` [staurosporine, reference compound] the “cell and nucleus morphology” value (AGS cell line) was “Shrunken cells’ bodies and fragmented DNA”.
